Test systems include HT29 colon; RXF 393 renal; MDA-MB-435; SR leukemia; MDA-MB-231 breast; HL-60(TB) leukemia; A549 NSCLC; COLO 205 colon; IGROV1 ovarian; CAKI-1 renal; OVCAR-3 ovarian.
Holding throughout (experiment): NCI-60 cell line screen, 48 h

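Tested at 5 concentrations; 48 h exposure; 96-well plates; endpoints linearly interpolated, else capped at highest concentration. GI50 = concentration required for 50% inhibition of growth. Definition used: TGI = concentration required for complete inhibition of growth.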

In the case of `Oc1ccc(-c2nc3ccc(Cl)cc3s2)cc1`, the TGI with HT29 colon is 34.6 µM; in the experiment with RXF 393 renal, 44 µM; with MDA-MB-435 it was 35.6 µM; in the experiment with SR leukemia it was 51.1 µM; in the experiment on MDA-MB-231 breast it was 45.5 µM; in the experiment with HL-60(TB) leukemia it was 57.7 µM. The TGI in the experiment with A549 NSCLC turned out to be 45.2 µM; with COLO 205 colon it was 32.3 µM; with IGROV1 ovarian, 32.4 µM; with CAKI-1 renal it was 36.5 µM; with OVCAR-3 ovarian, 40.7 µM.

On to `NC(=S)N/N=C\c1nccc2ccccc12`, for which the TGI with HT29 colon was 30.9 µM; with MDA-MB-435, more than 100 µM; in the experiment on SR leukemia, 0.731 µM; in the experiment with MDA-MB-231 breast, 35.7 µM; with HL-60(TB) leukemia, 40.4 µM; in the experiment with A549 NSCLC it was more than 100 µM. In addition, the results for the TGI in the experiment on COLO 205 colon, with IGROV1 ovarian and with OVCAR-3 ovarian were 2.89 µM, 17.4 µM and more than 100 µM, respectively.

For `CC1=C(C)Cc2c(O)ccc(O)c2C1`, the TGI in the experiment with HT29 colon stood at 30.5 µM; with RXF 393 renal, 30 µM; with MDA-MB-435 it was 30.5 µM; with SR leukemia it was 38.8 µM; in the experiment with MDA-MB-231 breast, 44.1 µM; in the experiment on HL-60(TB) leukemia, 23.5 µM. For the same molecule, the TGI with A549 NSCLC turned out to be 41.9 µM; with COLO 205 colon, 34.7 µM; in the experiment with CAKI-1 renal, 34.1 µM; with OVCAR-3 ovarian, 43.2 µM.

In the case of `COc1ccc(-c2cc3[nH]nc(N)c3c(=O)o2)cc1`, the TGI in the experiment with HT29 colon, with RXF 393 renal, in the experiment with SR leukemia, in the experiment on HL-60(TB) leukemia, in the experiment with A549 NSCLC and in the experiment on COLO 205 colon was more than 100 µM throughout. For the same molecule, the TGI with IGROV1 ovarian and in the experiment with CAKI-1 renal was more than 100 µM each time.

Consider `CC(=O)C1CC[C@@H]2[C@H](CC[C@]3(C)[C@@H](O)CC[C@@H]23)[C@H]1C(=O)O` (stereo not given in full), for which the TGI with HT29 colon, in the experiment on RXF 393 renal, in the experiment with MDA-MB-435, in the experiment with SR leukemia, with MDA-MB-231 breast and in the experiment with HL-60(TB) leukemia was more than 100 µM each time. The TGI with A549 NSCLC, in the experiment on COLO 205 colon, in the experiment with IGROV1 ovarian, in the experiment on CAKI-1 renal and with OVCAR-3 ovarian was more than 100 µM in each case.

As to `N/C(=N\N=C\c1ccc2c(c1)OCCO2)NO`, the TGI with HT29 colon is 33.6 µM; with RXF 393 renal it was more than 100 µM; in the experiment on HL-60(TB) leukemia it was more than 63.2 µM; in the experiment on A549 NSCLC it was more than 82.9 µM; in the experiment with COLO 205 colon, 38.5 µM; in the experiment on IGROV1 ovarian it was more than 100 µM. In addition, the results for the TGI in the experiment on CAKI-1 renal and with OVCAR-3 ovarian were more than 100 µM and 16.2 µM, respectively.

Regarding `O=C1C(Cl)=C(Nc2ccc(S(=O)(=O)Nc3ccccn3)cc2)C(=O)c2ccccc21`, the TGI with HT29 colon is 22.3 µM; in the experiment on RXF 393 renal it was 22.6 µM; with MDA-MB-435 it was 14 µM; in the experiment with SR leukemia, 16.2 µM; in the experiment with MDA-MB-231 breast, 22 µM; in the experiment on HL-60(TB) leukemia, more than 50.5 µM. Besides, the TGI is 41.9 µM in the experiment with A549 NSCLC; 27.8 µM with COLO 205 colon; 23.1 µM in the experiment on IGROV1 ovarian; more than 52.1 µM in the experiment on CAKI-1 renal; 15.6 µM in the experiment on OVCAR-3 ovarian.

As to `CC1(C)OCC=CCO1`, the TGI with HT29 colon, in the experiment with RXF 393 renal, in the experiment with MDA-MB-435, with HL-60(TB) leukemia, in the experiment on A549 NSCLC and with COLO 205 colon was more than 100 µM throughout. Moreover, the TGI in the experiment with IGROV1 ovarian, in the experiment on CAKI-1 renal and in the experiment with OVCAR-3 ovarian was more than 100 µM throughout.

As to `COc1cc(C(O)(CC#N)c2cc3c(cc2Br)OCO3)cc(OC)c1OC` (stereo not given), the TGI with HT29 colon was 54.9 µM; in the experiment on RXF 393 renal, more than 100 µM; in the experiment on MDA-MB-435, 13.7 µM; in the experiment on MDA-MB-231 breast, 54.5 µM; with A549 NSCLC it was more than 100 µM; with COLO 205 colon, more than 100 µM. Further, the TGI was more than 100 µM in the experiment on IGROV1 ovarian, 75.8 µM in the experiment on CAKI-1 renal and more than 100 µM with OVCAR-3 ovarian.

For `COc1cc2c(cc1OCCCC(=O)Nc1ccc3ccc4cccc5ccc1c3c45)N=C[C@@H]1CCCN1C2=O`, the TGI was more than 83.6 µM in the experiment on HT29 colon; 3.07 µM in the experiment on MDA-MB-435; 0.051 µM in the experiment with MDA-MB-231 breast; 4.77 µM with COLO 205 colon; 1.63 µM in the experiment on CAKI-1 renal; 0.518 µM with OVCAR-3 ovarian. Besides, the GI50 in the experiment on MDA-MB-435 is 1.61 µM; in the experiment with SR leukemia, less than 0.01 µM; with MDA-MB-231 breast it was 0.0135 µM; in the experiment with A549 NSCLC, less than 0.021 µM; in the experiment on COLO 205 colon it was 2.03 µM; in the experiment with IGROV1 ovarian, less than 0.0167 µM. Also, the GI50 in the experiment on CAKI-1 renal is 0.434 µM; in the experiment on OVCAR-3 ovarian, 0.197 µM.

The values are drawn from PubChem BioAssay (NCI).
